Read-outs that look alike come from different tables or passages of the source.
Legend:
HBsAg = details: cited from earlier work
[1] = read-out: CC50 cytotoxicity; cited from earlier work
HBV DNA [2] = details: cited from earlier work
HBV DNA [3] = assay: Cryopreserved PHH assay, real-time qPCR of HBV DNA in culture supernatant; assay type: cell-based, type D HBV in human primary hepatocytes (PHH); details: Hepatitis B virus, 240 h; PHH infected with type D HBV, supernatant day 10, qPCR
Experimental: (§1) The inhibitory effect of the compounds on HBV was evaluated by real-time quantitative qPCR assay (real time-qPCR) to detect the HBV DNA content in human primary hepatocytes (PHH) culture supernatant, and ELISA to detect the hepatitis B surface antigen and e antigen content, the EC50 value of the compounds was used as an indicator; meanwhile, the cell viability was detected by CellTiter-Glo to evaluate the toxicity of the compounds to cells.
(§2) 3.1. On day 0, PHH (1.32×10^5 cells/well) was seeded into a 48-well plate and incubated overnight at 37° C., 5% CO2.
(§3) 3.2. On the first day, PHH was infected with type D HBV (concentrated from HepDE19 cell culture supernatant).
(§4) 3.3 On the second day, the test compound was diluted to 7 concentrations with 5-fold serial dilution. Reference compound Peg-IFN-α 2a, 7 concentrations with 3-fold serial dilution. Compounds with different concentrations were added to the culture wells, and the wells were double-duplicated wells. The final concentration of DMSO in the culture medium was 2%.
(§5) 3.4 On the 4th, 6th, and 8th day, the culture medium was replaced by a fresh culture medium containing the compound.
(§6) 3.5 After collecting the culture supernatant from the culture well on the 10th day, the cell viability was tested with CellTiter-Glo. A portion of the culture supernatant was collected for ELISA determination to detect the content of hepatitis B virus surface antigen and e antigen; a portion of the sample was collected for extract DNA using a high-throughput DNA purification kit, referring to the product instructions for the specific steps.
3.6 Quantitative PCR to detect the content of HBV DNA
The qPCR reaction mixture, sample and standard were added to the 384 well reaction plate. PCR reactions: 95° C., 10 min; 95° C., 15 sec, 60° C., 1 min, 40 cycles.
(§7) Calculation of the inhibition percentage of HBV DNA, HBV surface antigen and e antigen. % Inh.=(1−value of the sample/value of DMSO control)×100.

[4] = Cryopreserved PHH assay, cell viability by CellTiter-Glo; assay type: cell-based; details: human, cryopreserved primary human hepatocytes (PHH), day 10, CellTiter-Glo
Experimental: as §1, §2, §4, §5, §6
Calculation of the percentage of cell viability: % viability=the luminescence value of the sample/the luminescence value of the DMSO control×100.

HBV e antigen (HBeAg) = assay: Cryopreserved PHH assay, ELISA of hepatitis B e antigen in culture supernatant; assay type: cell-based, type D HBV in human primary hepatocytes (PHH); details: Hepatitis B virus, 240 h, read-out: HBeAg EC50
Experimental: as §1, §2, §3, §4, §5, §6
(§8) 3.7 ELISA determination of hepatitis B virus surface antigen and e antigen
(§9) The specific steps can be referred to the product manual, the steps are briefly described as follows: 50 μL of sample and standard was added to the reaction plate respectively, 50 μL of enzyme conjugate was added to each well, the mixture was shaken and mixed well, then kept in a warm bath at 37° C. for 60 minutes, the plate was washed with washing solution for 5 times, 50 μL of the luminescent substrate was added to each well, the mixture was mixed well, and the reaction was carried out in the dark at room temperature for 10 minutes, and finally the chemiluminescence intensity was detected with the instrument.
as §7

[5] = tested on: HBV surface antigen (HBsAg); assay: Cryopreserved PHH assay, ELISA of hepatitis B surface antigen in culture supernatant; assay type: cell-based, type D HBV in human primary hepatocytes (PHH); details: Hepatitis B virus, 240 h, read-out: HBsAg EC50
Experimental: as §1, §2, §3, §4, §5, §6, §8, §9, §7

| Compound | EC50 (HBsAg) [nM] | CC50 [1] [µM] | EC50 (HBV DNA [2]) [nM] | EC50 (HBV DNA [3]) [nM] | CC50 at 8 days [4] [µM] | EC50 (HBV e antigen (HBeAg)) [nM] | EC50 [5] [nM] |
| --- | --- | --- | --- | --- | --- | --- | --- |
| Clc1cc2nc(N3CCN(c4ccccn4)CC3)[nH]c2cc1Cl [BM601] | 1500 | 24.5 | 600 |  |  |  |  |
| CC1(C)N=C(c2nc(-c3ccc(C(=O)O)cc3)cs2)Nc2c(OC(F)(F)F)cccc21 [Compound I-65, 4-(2-(4,4-dimethyl-8-trifluoromethoxyl-1,4-dihydroquinazolin-2-yl)thiazol-4-yl)benzoic acid] |  |  |  | 3 | > 50 | 3.3 | 39.5 |
| O=C(O)c1ccc(-c2csc(-c3cc(=O)c4cccc(Cl)c4o3)n2)cc1 [Compound I-19, 4-(2-(8-chloro-4-oxo-4H-benzopyran-2-yl)thiazol-4-yl)benzoic acid] |  |  |  | 28400 | > 50 | ~15000 | 39600 |
| CC1(C)N=C(c2nc(-c3ccc(C(=O)O)cc3)cs2)Nc2cc(Cl)ccc21 [Compound I-25, 4-(2-(7-chloro-4,4-dimethyl-1,4-dihydroquinazolin-2-yl)thiazol-4-yl)benzoic acid] |  |  |  | 98.8 | > 50 | 63.2 | 440 |
| CC1(C)N=C(c2nc(-c3ccc(C(=O)O)cc3)cs2)Nc2c(C(F)(F)F)cccc21 [Compound I-23, 4-(2-(4,4-dimethyl-8-trifluoromethyl-1,4-dihydroquinazolin-2-yl)thiazol-4-yl)benzoic acid] |  |  |  | 8.3 | > 50 | 2 | > 50000 |
| CC1(C)N=C(c2nc(-c3ccc(C(=O)O)cc3)c[nH]2)Nc2ccccc21 [Compound I-54, 4-(2-(4,4-dimethyl-1,4-dihydroquinazolin-2-yl)-1H-imidazol-4-yl)benzoic acid] |  |  |  | 25 | > 50 | 41 | 326 |
| CC1(C)N=C(c2ccc(-c3ccc(C(=O)O)cc3)cc2F)Nc2c(Cl)cccc21 [Compound I-46, 4′-(8-chloro-4,4-dimethyl-1,4-dihydroquinazolin-2-yl)-3′-fluoro-[1.1′-biphenyl]-4-carboxylic acid] |  |  |  | 48800 | > 50 | 6320 | > 50000 |
| COc1cc(-c2csc(C3=NC(C)(C)c4ccccc4N3)n2)ccc1C(=O)O [Compound I-40, 4-(2-(4,4-dimethyl-1,4-dihydroquinazolin-2-yl)thiazol-4-yl)-2-flurobenzoic acid] |  |  |  | 31 | > 50 | 34 | 302 |
| CC1(C)N=C(c2nc(-c3ccc(C(=O)O)cn3)cs2)Nc2ccccc21 [Compound I-34] |  |  |  | 171 | > 50 | 66.4 | 594 |
| CC1(C)N=C(c2nc(-c3ccc(C(=O)O)cc3)cs2)Nc2ccccc21 [Compound I-20, 4-(2-(4,4-dimethyl-1,4-dihydroquinazolin-2-yl)thiazol-4-yl)benzoic acid] |  |  |  | 5 | > 50 | 4 | 32 |
| O=C(O)c1ccc(-c2csc(-c3cc(=O)c4cccc(Cl)c4[nH]3)n2)cc1 [Compound I-13, 4-(2-(8-chloro-4-oxo-1,4-dihydroquinolin-2-yl)thiazol-4-yl)benzoic acid] |  |  |  | > 5000 | > 50 | > 5000 | > 50000 |
| O=C(O)c1ccc(-c2csc(C3=NC4(CC4)c4cccc(Cl)c4N3)n2)cc1 [Compound I-5, 4-(2-(8′-chloro-1′H-spiro[cyclopropyl-1,4′-quinazolin]-2′-yl)thiazol-4-yl)benzoic acid] |  |  |  | 11 | > 50 | 9 | 105 |
| CC1(C)OC(c2nc(-c3ccc(C(=O)O)cc3)cs2)=Nc2ccccc21 [Compound I-67, 4-(2-(4,4-dimethyl-4H-benzo[d] [1,3]oxazin-2-yl)thiazol-4-yl)benzoic acid] |  |  |  | 17.9 | > 50 | 4.2 | 147 |
| CC1(C)N=C(c2nc(-c3ccc(C(=O)O)cc3)cs2)Nc2c(Cl)cccc21 [Compound I-4, 4-(2-(8-chloro-4,4-dimethyl-1,4-dihydroquinazolin-2-yl)thiazol-4-yl)benzoic acid] |  |  |  | 4.12 | > 50 | 3.2 | 10.2 |
